Patent US20230094922A1, “METHODS OF THERAPEUTIC PROGNOSTICATION” (GENETIKAPLUS LTD., priority 2020, published 2023)

Test system: iPSC-derived cortical neurons
Experiment: Dendritic spine length analysis, confocal imaging
Type: cell-based, human
Experimental: FIG. 8. Average dendritic spine length. Dendritic spine length was analyzed using confocal microscopy in samples treated with Bupropion. For imaging of dendritic spines, images were acquired using the Nikon Confocal A1R with a 60× objective and a 2× digital zoom in z-stacks. Analysis was performed using Neurolucida software. FIGS. 9A-9B. Average dendritic spine length in specific spine types. […] For imaging of dendritic spines, images were acquired using the Nikon Confocal A1R with a 60× objective and a 2× digital zoom in z-stacks. Analysis was performed using Neurolucida software. iPSC differentiation into neurons-iPSCs were seeded at a density of 3×10^6 cells/well on a hESC-qualified Matrigel pre-coated 6-well plate and incubated at 37° C., 5% CO2 overnight. Differentiation was initiated the following day (day 0) after verifying that 100% confluency was reached. Differentiation media was added daily according to the following order: […]7 (day 15 onward) similar to a previously published protocol developed by for rapid differentiation to cortical neurons. The components of the described media, Q1-7, are provided in Appendix 1. Cells were assessed for differentiation efficiency and cell death on a daily basis. On day 9, differentiated neurons were re-plated on either 96-well plates (destined for staining) or 12-well plates (destined for RNA extraction) that were coated with 15 μg/mL Poly-ornithine diluted in PBS (overnight incubation at 37° C.), followed by 1 μg/mL Laminin and 2 μg/mL Fibronectin diluted in PBS (overnight incubation at 37° C.): Neurons were first rinsed with pre-warmed PBS and 1 ml/well of Accutase was added for 35 minutes at 37° C., 5% CO2. DNAse1 (0.5 mg/mL) was then added for 10 additional minutes. 3 ml of pre-warmed Neurobasal media was added to each well and neurons were gently collected using a 5 ml […]. Wells were then verified for the presence of any remaining neurons. Neurons were spun down and resuspended in Q6 media. Neurons were seeded at a density of 150,000 cells/cm^2 placed back at 37° C. Following four hours of incubation, media was changed to Q6 media (150 μl per 96-well and 1 ml per 12-well). […] For dendritic arborization analysis, pre/post-synaptic markers and colocalization analysis; α-Syn, PSD95 and MAP2 primary antibodies were used. Following washes, fluorophore-coupled secondary antibodies were incubated in the blocking solution for 1 hour at room temperature. The cells were counter-stained with 4',6-diamidino-2-phenylindole (DAPI) for nuclei detection for 15 minutes at room temperature followed by washes with PBS. […] Neuronal and synaptic morphology was assessed using the Neurolucida software, pre- and post-synaptic marker analysis was performed using CellProfiler and total dendritic length was measured using Fiji software.

CC(NC(C)(C)C)C(=O)c1cccc(Cl)c1 (stereo not drawn) [Bupropion, 3-Chloro-N-tert-butyl-β-keto-α-methylphenethylamin]
total dendritic spine length (average), after treatment (cells derived from non-responders): no difference | total dendritic spine length (average), after treatment (cells derived from responders): significant increase | specific spine types (mushroom, stubby, filopodia, thin), after treatment (cells from non-responders): increase in the number of stubby spines | specific spine types (mushroom, stubby, filopodia, thin), after treatment (responder's cells): significant increase in the number of mushroom, stubby and thin spines
